Measured values: US20090131469A1, “PHARMACEUTICAL AGENT COMPRISING SOLIFENACIN” (ASTELLAS PHARMA INC., priority 2005, published 2009)
Where a name gives a salt, the structure may show the parent alone.

Legend:
[1] = system: rat model of pollakiuria associated with neurogenic bladder due to cerebral infarction; assay: Rat model of pollakiuria due to cerebral infarction (cystometry); type: in vivo; conditions: male SD rats with cerebral infarction; intravenous administration; 30 minutes after drug administration
Experimental: Male SD rats (270 g to 320 g) were used for the test. After the rats were anesthetized with pentobarbital (50 mg/kg), a vesical fistula cannula and a cannula for drug administration were inserted and indwelled in the bladder and the jugular vein, respectively. A cannula was also inserted and indwelled in the common carotid vein for drug administration. Cerebral infarction was prepared according to the method of Longa et al. (Stroke, 1989, vol. 20, p. 84-91) 2 to 3 days after the surgery. Under halothane anesthesia, the cervical part was incised and a nylon thread was inserted from the common carotid artery to the internal carotid artery and the tip of the thread was carried forward to the origin of the middle cerebral artery and indwelled to induce cerebral ischemia. On the next day, neurological symptoms were observed and scored according to the method of Garcia, et al. (Stroke, 1995, Vol. 26, p. […]) and rats having moderate or more severe symptoms (with a score of 13 or less) were selected.
After awakening from anesthesia, the rats were maintained in Bollman cages. The vesical fistula cannula was connected to a syringe pump via a three-way stopcock and physiological saline was continuously infused into the bladder to induce micturition reflex. Another end of the three-way stopcock was connected to a pressure transducer to measure intravesical pressure. After stabilization of micturition reflex, the test drug was administered through the catheter for drug dose inserted in the external carotid vein.
The volume of physiological saline required to induce a single micturition reflex at 30 minutes after drug administration, that is, bladder capacity and the voided volume per micturition were measured. The results are shown as mean±standard error.
The Student's t-test was used for a comparison between the sham surgery group and the cerebral infarction group and the Dunnett's multiple comparison test was used for a comparison between the group receiving drug administration and the group not receiving drug administration in the cerebral infarction group.

[2] = system: patients with neurogenic bladder; assay: Clinical study of urinary urgency, pollakiuria and urinary incontinence: patients with neurogenic bladder; type: in vivo, human; conditions: for improving effect on pollakiuria (in words) / improving effect on urinary incontinence (in words) / improving effect on urinary urgency (in words): solifenacin succinate 5 mg and 10 mg (Groups S5, S10), propiverine hydrochloride 20 mg (Group B), oral once daily for 12 weeks
Experimental: (§1) A clinical study was conducted in patients with urinary urgency, pollakiuria and urinary incontinence under the conditions described below. The causes of urinary urgency, pollakiuria and urinary incontinence were separated into neurogenic bladder (due to cerebral infarction or brain disorder due to brain contusion, peripheral neuropathy, and spinal cord disorder due to cervical or lumbar spondylosis, spondylitis deformans, cervical or lumbar spondylolisthesis, disk herniation, spinal stenosis and the like) and unstable bladder (without accompanying neurological diseases, urinary tract infections and calculi, irradiation history to the lumbar part and tumors in the pelvic organs that can be causal disease of detrussor hyperactivity) and analyses were done.
(§2) Male and female patients aged 20 years or older who presented symptoms of urinary urgency, pollakiuria and urinary incontinence for 6 months or a longer period, the number of micturition per 24 hours was 8 on average or higher and satisfied at least one of the following conditions (1) and (2):
(§3) (1) Having at least one episode of urge urinary incontinence per 24 hours on average (2) Having at least one episode of urinary urgency per 24 hours on average. Patients with stress urinary incontinence, psychogenic pollakiuria and the like were excluded. In addition, patients with complication of urinary tract infection, urinary calculi, interstitial cystitis, bladder tumor and the like were also excluded.
(§4) Group P: Placebo (Sham drug) Group S5: 5 mg of solifenacin succinate (corresponding to 3.8 mg of solifenacin calculated as a free base) Group S10: 10 mg of solifenacin succinate (corresponding to 7.5 mg of solifenacin calculated as a free base) Group B: 20 mg of propiverine hydrochloride
(§5) All the groups received oral administration once daily for 12 weeks.

[3] = system: patients with unstable bladder; assay: Clinical study of urinary urgency, pollakiuria and urinary incontinence: patients with unstable bladder; type: in vivo, human
Experimental: as §1, §2, §3, §4, §5

[4] = Group B: 20 mg oral once daily for 12 weeks
[5] = Group S5: 5 mg oral once daily for 12 weeks
[6] = Group S10: 10 mg oral once daily for 12 weeks

CCCOC(C(=O)OC1CCN(C)CC1)(c1ccccc1)c1ccccc1 [propiverine hydrochloride, reference compound]
doses that increased the bladder capacity [1]: ≥ 1 mg/kg
doses that increased the voided volume [1]: ≥ 0.3 mg/kg
Difference of change in the number of micturitions from that in Group P [2, 4]: +0.23
Difference of change in the number of urinary incontinence episodes from that in Group P [2, 4]: −1.01
Difference of change in the number of urinary urgency episodes from that in Group P [2, 4]: +0.18
Mean change in the number of micturitions [2, 4]: −1.25
Mean change in the number of urinary incontinence episodes [2, 4]: −1.62
Mean change in the number of urinary urgency episodes [2, 4]: −1.65
improving effect on pollakiuria (in words) [2]: no improving effect on pollakiuria was observed
improving effect on urinary incontinence (in words) [2]: improved urinary incontinence
improving effect on urinary urgency (in words) [2]: improving effect on urinary urgency was not observed
Difference of change in the number of micturitions from that in Group P [3, 4]: −0.99
Difference of change in the number of urinary incontinence episodes from that in Group P [3, 4]: −0.50
Difference of change in the number of urinary urgency episodes from that in Group P [3, 4]: −1.08
Mean change in the number of micturitions [3, 4]: −1.90
Mean change in the number of urinary incontinence episodes [3, 4]: −1.23
Mean change in the number of urinary urgency episodes [3, 4]: −2.33

O=C(O[C@H]1CN2CCC1CC2)N1CCc2ccccc2[C@@H]1c1ccccc1 [solifenacin succinate, (3R)-quinuclidin-3-yl (1S)-1-phenyl-1,2,3,4-tetrahydroisoquinoline-2-carboxylate]
doses that increased the bladder capacity [1]: ≥ 0.03 mg/kg
doses that increased the voided volume [1]: ≥ 0.03 mg/kg
Difference of change in the number of micturitions from that in Group P [2, 5]: −0.56
Difference of change in the number of urinary incontinence episodes from that in Group P [2, 5]: −1.19
Difference of change in the number of urinary urgency episodes from that in Group P [2, 5]: −1.03
Mean change in the number of micturitions [2, 5]: −2.04
Mean change in the number of urinary incontinence episodes [2, 5]: −1.80
Mean change in the number of urinary urgency episodes [2, 5]: −2.86
Difference of change in the number of micturitions from that in Group P [2, 6]: −1.11
Difference of change in the number of urinary incontinence episodes from that in Group P [2, 6]: −0.79
Difference of change in the number of urinary urgency episodes from that in Group P [2, 6]: −0.60
Mean change in the number of micturitions [2, 6]: −2.59
Mean change in the number of urinary incontinence episodes [2, 6]: −1.40
Mean change in the number of urinary urgency episodes [2, 6]: −2.43
improving effect on pollakiuria (in words) [2]: improving effect on pollakiuria was observed
improving effect on urinary incontinence (in words) [2]: improve all the symptoms of urinary urgency, pollakiuria and urinary incontinence
improving effect on urinary urgency (in words) [2]: improving effect on urinary urgency was observed
Difference of change in the number of micturitions from that in Group P [3, 5]: −1.02
Difference of change in the number of urinary incontinence episodes from that in Group P [3, 5]: −0.85
Difference of change in the number of urinary urgency episodes from that in Group P [3, 5]: −1.13
Mean change in the number of micturitions [3, 5]: −1.93
Mean change in the number of urinary incontinence episodes [3, 5]: −1.58
Mean change in the number of urinary urgency episodes [3, 5]: −2.38
Difference of change in the number of micturitions from that in Group P [3, 6]: −1.26
Difference of change in the number of urinary incontinence episodes from that in Group P [3, 6]: −0.88
Difference of change in the number of urinary urgency episodes from that in Group P [3, 6]: −1.56
Mean change in the number of micturitions [3, 6]: −2.17
Mean change in the number of urinary incontinence episodes [3, 6]: −1.61
Mean change in the number of urinary urgency episodes [3, 6]: −2.81
